Patent publication US11440898B2, “Isoquinoline compounds, methods for their preparation, and therapeutic uses thereof in conditions associated with the alteration of the activity of beta galactosidase” (Minoryx Therapeutics S.L., priority 2016, dated 2022)

These compounds were tested against T1, mutated beta-galactosidase (p.R60H canine GLB1) in GM11473 fibroblasts (Canis lupus familiaris, UniProt Q9TRY9, R60H) (assay: Enhancement of β-galactosidase activity measured in GM1 fibroblasts (GM11473), 4-MU-β-D-galactopyranoside substrate). Details: increase in β-galactosidase enzyme activity vs non-treated cells, concentrations between 6 and 50 μM, 4 days incubation.
T1 construct: host or cells: GM11473 canine GM1 gangliosidosis fibroblasts
T1 sequence (Q9TRY9 30-668 R60H): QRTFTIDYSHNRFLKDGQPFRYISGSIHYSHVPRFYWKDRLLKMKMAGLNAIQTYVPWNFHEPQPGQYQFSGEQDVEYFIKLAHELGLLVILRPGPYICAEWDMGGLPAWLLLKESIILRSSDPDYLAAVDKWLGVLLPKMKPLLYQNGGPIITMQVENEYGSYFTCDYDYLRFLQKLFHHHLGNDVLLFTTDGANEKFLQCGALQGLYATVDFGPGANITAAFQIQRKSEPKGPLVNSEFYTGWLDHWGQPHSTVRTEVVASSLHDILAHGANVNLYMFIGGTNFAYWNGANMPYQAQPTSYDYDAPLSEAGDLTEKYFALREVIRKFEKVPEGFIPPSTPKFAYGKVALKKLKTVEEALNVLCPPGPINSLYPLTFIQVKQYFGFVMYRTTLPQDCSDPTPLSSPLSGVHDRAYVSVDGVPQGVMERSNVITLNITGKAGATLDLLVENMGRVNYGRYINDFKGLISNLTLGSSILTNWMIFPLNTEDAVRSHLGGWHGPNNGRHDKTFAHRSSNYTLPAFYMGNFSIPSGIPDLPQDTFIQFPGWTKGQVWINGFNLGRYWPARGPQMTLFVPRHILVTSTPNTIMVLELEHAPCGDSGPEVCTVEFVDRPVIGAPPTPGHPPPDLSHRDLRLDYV
Type: cell-based
Set-up: key: Increase in comparison with non-treated of >2.5 fold is shown as A; Increase in comparison with non-treated of >1.7-2.5 fold is shown as B; Increase in comparison with non-treated of 1.2-1.7 fold is shown as C; D means that no increase compared with non-treated cells was detected in this method
Description: The capacity of the Compounds of the Disclosure to enhance mutated beta-galactosidase activity levels in GM1 fibroblasts was assayed as follows.
Fibroblasts homozygous for a GM1 gangliosidosis missense mutation (GM11473) (canine fibroblasts homozygous for the GM1 gangliosidosis missense mutation p.R60H equivalent to human p.R59H mutation) were purchased from Coriell Institute for Medical Research (Camden, N.J., USA).
Fibroblasts were seeded at 4×10^4 cells per well in 12-well cell culture plates in Dulbecco's Modified Eagle's Media (DMEM) supplemented with 10% of fetal bovine serum (FBS), 1% penicillin/streptomycin (P/S) (Thermo Fisher Scientific, Waltham, Mass., USA) and incubated at 37° C., 5% CO2 overnight for cell attachment. Subsequently, cells were incubated in the absence or presence of the compounds at the desired concentration for 4 days. After incubation, cells were washed twice with phosphate-buffered saline (“PBS”) and detached using Trypsin-EDTA solution (Sigma Aldrich, St. Louis, Mo., USA) to prepare cell pellets. The pellets were stored at −80° C. until activity assays were performed.
β-Galactosidase activity in cell lysates was measured by using 4-Methylumbelliferyl-β-D-galactopyranoside substrate (Sigma Aldrich, St. Louis, Mo., USA). Briefly, lysates were resuspended in 200 μL of 0.9% NaCl containing 0.01% triton X-100 lysis buffer to promote membrane disruption. The cell suspension was sonicated and centrifuged to remove insoluble materials. Then, lysates were mixed with 4-MU-β-D-galactopyranoside in 100 mM citrate buffer (pH=4) and 100 mM NaCl for 60 min at 37° C. The reaction was terminated by adding 100 mM glycine-NaOH buffer (pH=10.7). The liberated 4-MU was measured on a GloMax Discover plate reader (Promega, Madison, Wis., USA) with excitation at 340 nm and emission at 460 nm. Protein quantification was determined using Pierce BCA Protein Assay Kit (Thermo Fisher Scientific, Waltham, Mass., USA). Measurements were interpolated in a 4-MU standard curve and normalized by protein quantity. Enzyme activities were expressed in treated cells as X-fold increase in comparison with non-treated cells (X=1 represents no enhancement).
The capacity of the Compounds of the Disclosure to produce an increase in β-galactosidase enzyme activity in canine GM1 fibroblasts bearing p.R60H canine GLB1 mutation at concentrations between 6 and 50 μM is denoted as follows: • Increase in comparison with non-treated of >2.5 fold is shown as A. • Increase in comparison with non-treated of >1.7-2.5 fold is shown as B. • Increase in comparison with non-treated of 1.2-1.7 fold is shown as C. • D means that no increase compared with non-treated cells was detected in this method. • ND means “not determined.”

Row | Compound | Activity in GM11473 fibroblasts
1 | O=C(NCCc1ccc2c(c1)OCCO2)c1ccc(Nc2nccc3ccc(Cl)cc23)cn1 [Example 38, 5-((7-Chloroisoquinolin-1-yl)amino)-N-(2-(2,3-dihydrobenzo[b][1,4]dioxin-6-yl)ethyl)picolinamide] | D
2 | O=C(NCc1ccc2c(c1)CCCO2)c1ccc(Nc2nccc3ccc(Cl)cc23)nc1 [Example 63, 6-((7-Chloroisoquinolin-1-yl)amino)-N-(chroman-6-ylmethyl)nicotinamide] | C (Increase in comparison with non-treated of 1.2-1.7 fold is shown as C)
3 | O=S(=O)(NC1CCc2ccccc2C1)c1cccc(Nc2nccc3ccc(Cl)cc23)c1 (stereo not shown) [Example 70, 3-((7-Chloroisoquinolin-1-yl)amino)-N-(1,2,3,4-tetrahydronaphthalen-2-yl)benzenesulfonamide] | C (Increase in comparison with non-treated of 1.2-1.7 fold is shown as C)
4 | O=C(NCc1ccccc1)c1cccc(Nc2nccc3ccc(Cl)cc23)c1 [Example 4, N-benzyl-3-((7-chloroisoquinolin-1-yl)amino)benzamide] | D
5 | O=C(NCc1ccc2c(c1)OCCO2)c1ccc(Nc2nccc3ccc(Cl)cc23)cn1 [Example 28, 5-((7-Chloroisoquinolin-1-yl)amino)-N-((2,3-dihydrobenzo[b][1,4]dioxin-6-yl)methyl)picolinamide] | B (Increase in comparison with non-treated of >1.7-2.5 fold is shown as B)
6 | COc1ccc(CNC(=O)c2ccc(Nc3nccc4ccc(Cl)cc34)nc2)cc1 [Example 56, 6-((7-Chloroisoquinolin-1-yl)amino)-N-(4-methoxybenzyl)nicotinamide] | D
7 | Cn1nnc2c(NS(=O)(=O)c3ccc(Nc4nccc5ccc(Cl)cc45)cc3)cccc21 [Example 73, 4-((7-Chloroisoquinolin-1-yl)amino)-N-(1-methyl-1H-benzo[d][1,2,3]triazol-4-yl)benzenesulfonamide] | D
8 | O=C(NCc1ccc2c(c1)OCCO2)c1ccc(Nc2nccc3ccc(Cl)cc23)nc1 [Example 54, 6-((7-Chloroisoquinolin-1-yl)amino)-N-((2,3-dihydrobenzo[b][1,4]dioxin-6-yl)methyl)nicotinamide] | C (Increase in comparison with non-treated of 1.2-1.7 fold is shown as C)
9 | O=C(NCc1ccc2c(c1)OCCO2)c1cccc(Nc2nccc3ccc(Cl)cc23)c1 [Example 3, 3-((7-Chloroisoquinolin-1-yl)amino)-N-((2,3-dihydrobenzo[b][1,4]dioxin-6-yl)methyl)benzamide] | C (Increase in comparison with non-treated of 1.2-1.7 fold is shown as C)
10 | COc1ccc(CNC(=O)c2ccc(Nc3nccc4ccc(Cl)cc34)cn2)cc1 [Example 30, 5-((7-Chloroisoquinolin-1-yl)amino)-N-(4-methoxybenzyl)picolinamide] | B (Increase in comparison with non-treated of >1.7-2.5 fold is shown as B)
11 | O=C(NCC1CCc2ccccc2C1)c1ccc(Nc2nccc3ccc(Cl)cc23)cn1 (stereo not shown) [Example 41, 5-((7-Chloroisoquinolin-1-yl)amino)-N-((1,2,3,4-tetrahydronaphthalen-2-yl)methyl)picolinamide] | B (Increase in comparison with non-treated of >1.7-2.5 fold is shown as B)
12 | Cn1nnc2cc(NC(=O)c3cccc(Nc4nccc5ccc(Cl)cc45)c3)ccc21 [Example 1, 3-((7-Chloroisoquinolin-1-yl)amino)-N-(1-methyl-1H-benzo[d][1,2,3]triazol-5-yl)benzamide] | C (Increase in comparison with non-treated of 1.2-1.7 fold is shown as C)
13 | O=C(NCc1ccccc1)c1cc(Nc2nccc3ccc(Cl)cc23)ccn1 [Example 9, N-benzyl-4-((7-chloroisoquinolin-1-yl)amino)picolinamide] | B (Increase in comparison with non-treated of >1.7-2.5 fold is shown as B)
